These results are taken from patent US5164300A, “Method for determining activity of retroviral protease” (Washington University, priority 1990, dated 1992).

One may read the Km as the substrate concentration at which the rate is half of its maximum.

One assay deals with T1, HIV protease (HIV-1 M:B_ARV2/SF2, UniProt P03369).
T1 construct: synthetic [Aba67,Aba95] homodimer (Schneider and Kent) or cloned enzyme from E. coli, interchangeably
Briefly: HPLC HIV protease assay (cleavage of peptide substrates). It counts as biochemical, human immunodeficiency virus (HIV). As for the experimental part: HPLC Assay. The HPLC HIV protease assay was conducted using either synthetic HIV protease [Schneider and Kent, Cell 54, 363-368 (1988)] in which the two Cys residues (Cys^67, Cys^95) were replaced by the isosteric α-aminobutyric acid to eliminate the complications of free sulfhydryl groups, or cloned material expressed in E. coli. In all cases examined, the cleavage patterns and inhibition results were identical. Synthetic HPLC-purified protease (0.05 mg/ml) was dissolved in assay buffer (20 mM phosphate, 20% glycerol, 0.1% CHAPS, pH 6.4). 20 μl of 0.1 mM substrate was mixed with 20 μl assay buffer and 10 μl of HIV protease stock were added and then incubated at 25° for the desired time. The reaction was stopped by the addition of 50 μl of 10% TFA. The sample was applied to a C18 HPLC column developed with 0.05% TFA for 5 min followed by a gradient of 0- 40% acetonitrile in 40 min. For inhibitor studies, 10 μl of the protease solution was preincubated at 25° for 10 min with the 20 μl of 0.1 mM inhibitor (dissolved in DMSO and diluted to 0.1 mM with assay buffer). Then 20 μl of test substrate, acetyl-Thr-Ile-Met-Met-Gln-Arg-NH2 or Abz-NF^* -6, was added in order to determine inhibition of cleavage. Reactions were stopped and cleavage rates were monitored by HPLC as above. […]
Fluorescence Assay. Fluorescence measurements on 96-well ELISA plates were made with the Titertek Fluoroskan II, version 3.1. […] Ten μl of a stock solution (0.1 mg/ml) of HIV protease was incubated with five different concentrations of Abz-NF^* -6 in a final volume of 100 μl at 37° C. with the increase in fluorescence monitored in each well every five minutes. […] A standard curve relating changes in fluorescent intensity to changes in concentration of product was used to convert fluorescence changes into molar velocities. […] Sixty μl of 10% TFA was added to stop the reaction and the amount of cleavage determined by HPLC. […] By the amount of substrate remaining, an estimated Ki allows appropriate choice of concentration ranges for the inhibitor for the fluorescence assay.

Another assay has as its target T2, synthetic HIV protease (HIV-1 M:B_ARV2/SF2, UniProt P03369).
T2 construct: homodimer
The assay is described as follows: Fluorescence assay, kinetic measurements of cleavage by synthetic HIV protease. It counts as biochemical, human immunodeficiency virus (HIV). As for the experimental part:
Fluorescence Assay. Fluorescence measurements on 96-well ELISA plates were made with the Titertek Fluoroskan II, version 3.1. An excitation filter of 355 nm and an emission filter of 430 nm was used. Ten μl of a stock solution (0.1 mg/ml) of HIV protease was incubated with five different concentrations of Abz-NF^* -6 in a final volume of 100 μl at 37° C. with the increase in fluorescence monitored in each well every five minutes. A stock solution of 1 mM Abz-NF^* -6 in DMSO was used. A standard curve relating changes in fluorescent intensity to changes in concentration of product was used to convert fluorescence changes into molar velocities. In order to predetermine the concentration range for Ki determination of inhibitors, it was found convenient to do a preliminary assay by HPLC. Twenty μl of 0.1 mM inhibitor in assay buffer (pH 6.4) and 10 μl of HIV protease (stock solution of 0.05 mg/ml) were preincubated for 5-10 min at 25° C. Twenty μl of 0.1 mM Abz-NF^* -6 was added and the reaction continued for 1 hour. Sixty μl of 10% TFA was added to stop the reaction and the amount of cleavage determined by HPLC. […] By the amount of substrate remaining, an estimated Ki allows appropriate choice of concentration ranges for the inhibitor for the fluorescence assay.
The chromogenic substrates of Nashed et al., Biochem. Biophys. Res. Commun. 163, 1079-1085 (1989), had Km 's estimated to be greater than […].

Assay [1] has as its system purified HIV protease expressed in E. coli. The conditions noted are these: estimated, Nashed et al.; cited from earlier work.

Where a SMILES comes first, the peptide text is derived from it. [ ]: non-standard residue; d: D form. Phe(4-NO2) = N[C@@H](Cc1ccc([N+](=O)[O-])cc1)C(=O)O; Nle = CCCC[C@H](N)C(=O)O; 2Abz = Nc1ccccc1C(=O)O

Consider `CCCC[C@H](NC(=O)[C@@H](NC(=O)[C@@H](NC(C)=O)[C@@H](C)O)[C@@H](C)CC)C(=O)N[C@@H](Cc1ccc([N+](=O)[O-])cc1)C(=O)N[C@@H](CCC(N)=O)C(=O)N[C@@H](CCCNC(=N)N)C(N)=O` [Ac-Thr-Ile-Nle-Phe(p-NO2)-Gln-Arg-NH2] (Ac-TI[Nle][Phe(4-NO2)]QR-NH2), for which the “cleavage under the conditions of HPLC assay” value at HIV protease (incubation times of one hour) is on record as “showed cleavage”.

As to `CCCC[C@H](NC(=O)[C@@H](NC(=O)[C@@H](NC(=O)c1ccccc1N)[C@@H](C)O)[C@@H](C)CC)C(=O)N[C@@H](Cc1ccc([N+](=O)[O-])cc1)C(=O)N[C@@H](CCC(N)=O)C(=O)N[C@@H](CCCNC(=N)N)C(N)=O` [Abz-NF^* -6, Abz-Thr-Ile-Nle-Phe(p-NO2)-Gln-Arg-NH2] (H-[2Abz]TI[Nle][Phe(4-NO2)]QR-NH2), the “amount of cleavage determined by HPLC” value on HIV protease (0.1 mM substrate, 1 hour, in the absence of inhibition) is on record as “complete cleavage”. Moreover, the Km at synthetic HIV protease (Lineweaver-Burk plot, velocities from the linear phase) was found to be 110 µM. Also, at synthetic HIV protease (synthetic HIV protease), the Kcat was 2.9 s⁻¹, the Vmax came out at 3.45 mM-mil^-1 and the “ratio Kcat /Km” value is on record as 26,364 M^-1 s^-1.

As for `CCCC[C@H](NC(=O)[C@@H](NC(=O)c1ccccc1N)[C@@H](C)CC)C(=O)N[C@@H](Cc1ccc([N+](=O)[O-])cc1)C(=O)N[C@@H](CCC(N)=O)C(=O)N[C@@H](CCCNC(=N)N)C(N)=O` [Abz-Ile-Nle-Phe(p-NO2)-Gln-Arg-NH2] (H-[2Abz]I[Nle][Phe(4-NO2)]QR-NH2), the cleavage efficiency entry at HIV protease (analog with the Abz group at position P3, compared with Abz-NF*-6) is recorded as “dramatically reduced”.

In the case of `CC(C)C[C@H](NC(=O)[C@@H]1CCCN1C(=O)[C@H](Cc1ccc([N+](=O)[O-])cc1)NC(=O)[C@H](C)NC(=O)[C@H](CCC(N)=O)NC(=O)[C@H](Cc1ccccc1)NC(=O)[C@@H](N)[C@@H](C)O)C(=O)N[C@@H](CCCNC(=N)N)C(=O)N[C@@H](C)C(=O)O` [H-Thr-Phe-Gln-Ala-Phe(p-NO2)-Pro-Leu-Arg-Ala-OH] (H-TFQA[Phe(4-NO2)]PLRA-OH), the “ratio Kcat /Km” value in assay [1] is ~23,000 M^-1 s^-1.
